Assay results published in patent EP0372582A2, “6-Aminoalkyl carbapenems” (Bristol-Myers Squibb Company, priority 1988, dated 1990).
Where two headings read alike, the source gives them in different places. Each block holds one compound with its values, some of them ahead of it.

What was measured:
E. coli A15119 = assay: M.I.C., tube dilution method in Nutrient Broth; type: cell-based; settings: unit assumed
Protocol: (§1) The following procedures illustrate the application of the process of this invention to the preparation of a variety of compounds of Formula V. In many instances, data illustrating the biological activity of the substances as antibiotics are presented. […] It is determined by interpolation from a graph of concentration versus number of cells following exposure of the organism to the test compound under growth conditions. Another parameter such as optical density which is proportional to the cell count may be used. In some instances MIC₉₀ values are also given. The latter refers to 90% growth inhibition.

E. coli A20341 = assay: M.I.C., tube dilution method in Nutrient Broth; type: cell-based; settings: unit assumed
Protocol: as §1

Ent. clo. A9656 = assay: M.I.C., tube dilution method in Nutrient Broth; type: cell-based; settings: unit assumed
Protocol: as §1

Ent. clo. A9659 = assay: M.I.C., tube dilution method in Nutrient Broth; type: cell-based; settings: unit assumed
Protocol: as §1

K. pneu. A20468 = assay: M.I.C., tube dilution method in Nutrient Broth; type: cell-based; settings: unit assumed
Protocol: as §1

K. pneu. A9664 = assay: M.I.C., tube dilution method in Nutrient Broth; type: cell-based; settings: unit assumed
Protocol: as §1

P. mir. A9900 = assay: M.I.C., tube dilution method in Nutrient Broth; type: cell-based; settings: unit assumed
Protocol: as §1

P. morg. A15153 = assay: M.I.C., tube dilution method in Nutrient Broth; type: cell-based; settings: unit assumed
Protocol: as §1

P. rett. A22424 = assay: M.I.C., tube dilution method in Nutrient Broth; type: cell-based; settings: unit assumed
Protocol: as §1

P. vul. A21559 = assay: M.I.C., tube dilution method in Nutrient Broth; type: cell-based; settings: unit assumed
Protocol: as §1

Ps. aeru. A9843 = assay: M.I.C., tube dilution method in Nutrient Broth; type: cell-based; settings: unit assumed
Protocol: as §1

Ps. aeru. CarbR = assay: M.I.C., tube dilution method in Nutrient Broth; type: cell-based; settings: unit assumed
Protocol: as §1

Ser. mars. A20019 = assay: M.I.C., tube dilution method in Nutrient Broth; type: cell-based; settings: unit assumed
Protocol: as §1

Staph aur. MR = assay: M.I.C., tube dilution method in Nutrient Broth; type: cell-based; settings: unit assumed
Protocol: as §1

Staph aur. Pen+ = assay: M.I.C., tube dilution method in Nutrient Broth; type: cell-based; settings: unit assumed
Protocol: as §1

Staph. aur. A9537 = assay: M.I.C., tube dilution method in Nutrient Broth; type: cell-based; settings: unit assumed
Protocol: as §1

Staph. serum = assay: M.I.C., tube dilution method in Nutrient Broth; type: cell-based; settings: unit assumed
Protocol: as §1

Str. faec. A20688 = assay: M.I.C., tube dilution method in Nutrient Broth; type: cell-based; settings: unit assumed
Protocol: as §1

Str. pneu. A9585 = assay: M.I.C., tube dilution method in Nutrient Broth; type: cell-based; settings: unit assumed
Protocol: as §1

Str. pyo. A9604 = assay: M.I.C., tube dilution method in Nutrient Broth; type: cell-based; settings: unit assumed
Protocol: as §1

[1] = Chemical stability in aqueous solution (half-life); type: physicochemical
Protocol: Chemical stability in aqueous solution at pH 7.4 and pH 2.0 is reported as half-life (t1/2). These values are determined by interpolation from a graph of concentration of test substance remaining in solution after storage under selected conditions for various periods of time.

[2] = Blood concentration parameters after administration to mice; type: in vivo; settings: for U.R.: listed after the PO/50 lines, abbreviation not defined; for AUC / half-life / Cmax: mouse, mice; for half-life: blood half-life
From the text: […] "Cmax" is the maximum concentration achieved, "t1/2" is the half-life or time for half of the absorbed material to disappear from the blood stream.

E. coli = assay: Protective dose (PD50) in infected animals; type: in vivo, mice; parameters: unit not given here; settings: PO
From the text: (§2) The PD₅₀ values are protective doses, or the dose of test compound which secures survival of 50% of the animals of a test group, usually mice, during a designated period of time after being infected with an inoculum of infectious organism which will result in death of all inoculated untreated animals during that test period.

S. pneu = assay: Protective dose (PD50) in infected animals; type: in vivo, mice; parameters: unit not given beside the values; settings: PO
From the text: as §2

[3] = citric acid buffer, pH 2, 37°C, pH 2.0 citric acid buffer, by hplc, read-out: t1/2, pH 2
[4] = phosphate buffer, pH 7.4, 37°C, pH 7.4 phosphate buffer, by uv, read-out: t1/2, pH 7.4 (converted)

Structure (SMILES): C[C@@H](N)[C@H]1C(=O)N2C(C(=O)O)=C(SCc3cn(C)nn3)[C@H](C)[C@H]12 [Procedure 15]
M.I.C. E. coli A15119 (E. coli A15119): 0.03 µg/mL | M.I.C. E. coli A20341 (E. coli A20341): 0.03 µg/mL | M.I.C. Ent. clo. A9656 (Ent. clo. A9656): 0.03 µg/mL | M.I.C. Ent. clo. A9659 (Ent. clo. A9659): 0.13 µg/mL | M.I.C. K. pneu. A20468 (K. pneu. A20468): 0.13 µg/mL | M.I.C. K. pneu. A9664 (K. pneu. A9664): 0.13 µg/mL | M.I.C. P. mir. A9900 (P. mir. A9900): 0.03 µg/mL | M.I.C. P. morg. A15153 (P. morg. A15153): 0.13 µg/mL | M.I.C. P. rett. A22424 (P. rett. A22424): 4 µg/mL | M.I.C. P. vul. A21559 (P. vul. A21559): 0.06 µg/mL | M.I.C. Ps. aeru. A9843 (Ps. aeru. A9843): 2 µg/mL | M.I.C. Ps. aeru. CarbR (Ps. aeru. CarbR): 16 µg/mL | M.I.C. Ser. mars. A20019 (Ser. mars. A20019): 0.13 µg/mL | M.I.C. Staph aur. MR (Staph aur. MR): 32 µg/mL | M.I.C. Staph aur. Pen+ (Staph aur. Pen+): 4 µg/mL | M.I.C. Staph. aur. A9537 (Staph. aur. A9537): 4 µg/mL | M.I.C. Staph. serum (Staph. serum): 4 µg/mL | M.I.C. Str. faec. A20688 (Str. faec. A20688): 125 µg/mL | M.I.C. Str. pneu. A9585 (Str. pneu. A9585): 1 µg/mL | M.I.C. Str. pyo. A9604 (Str. pyo. A9604): 1 µg/mL | half-life [1, 3]: 2.4 h | half-life [1, 4]: 3.1 h | U.R. [2]: 11 | AUC ([2]; in vivo, PO, 50 mg/kg): 25000 ng·h/mL | half-life ([2]; in vivo, PO, 50 mg/kg): 0.4 h | Cmax ([2]; in vivo, PO, 50 mg/kg, read-out: Cmax, PO/50): 29000 ng/mL | PD50, E. coli (E. coli): 21.80

half-life [1, 3]: 2 h | half-life [1, 4]: 2.8 h | U.R. [2]: 17 | half-life ([2]; 20 mg/kg, IM/20): 0.25 h | AUC ([2]; blood, 20 mg/kg, IM/20): 11000 ng·h/mL | Cmax ([2]; blood, 20 mg/kg, IM/20, read-out: Cmax, IM/20): 24000 ng/mL | AUC ([2]; blood, PO, 50 mg/kg): 32000 ng·h/mL | Cmax ([2]; blood, PO, 50 mg/kg, read-out: Cmax, PO/50): 33000 ng/mL | half-life ([2]; PO, 50 mg/kg): 0.4 h
Structure (SMILES): C[C@@H](N)[C@H]1C(=O)N2C(C(=O)O)=C(SCc3ccccn3)[C@H](C)[C@H]12 [Procedure 18, (5S,6R) 6-(1′R-Aminoethyl)-4R-methyl-3-[(pyridin-2-yl)methylthio]-7-oxo-1-azabicyclo[3.2.0]hept-2-ene-2-carboxylic Acid]
PD50, E. coli (E. coli): 11.20 | PD50, S. pneu (S. pneu): 16.5
